Data as given in patent publication US8497278B2, “Imidazo[1,2-a]pyridine compounds” (priority 2008, dated 2013).

System: central benzodiazepine receptors
Test: Central benzodiazepine receptor binding (test of Speth et al.)
Conditions: 1000 nM of the compound
Description: Compounds of the invention were assessed for their binding to the benzodiazepine receptor by the test of Speth et al. [Life Sci. 24, 351 (1979)] for central benzodiazepine receptors and LeFur et al. [Life Sci. 33, 449 (1983)] for peripheral receptors. The compounds were tested first at 1.0E-09, 1.0E-07 and 1.0E-05 M in single determination. […] The specific ligand binding to the receptor is defined as the difference between the total binding and the nonspecific binding determined in the presence of an excess of unlabelled ligand. In each experiment, the respective reference compound was tested concurrently with the test compounds in order to assess the assay suitability. It was tested at several concentrations (for IC50 value determination), and the data were compared with historical values. The assay was rendered valid if suitability criteria were met.
BZD central binding data for the compounds is provided in Table 3, wherein is provided the percent inhibition of central BZD in the presence of 1000 nM of the compound.

CN(C)C(=O)c1ncnn1Cc1c(-c2ccc(Cl)cc2)nc2ccccn12 [Compound 74, 1-((2-(4-chlorophenyl)imidazo[1,2-a]pyridin-3-yl)methyl)-N,N-dimethyl-1H-1,2,4-triazole-5-carboxamide]
% Inhibition at 1000 nM for CBZD: ++ (percentage of inhibition of central BZD site binding is greater than 80% in the presence of 1000 nM of the compound)

Cc1ccc(-c2nc3ccc(C)cn3c2Cn2ncnc2C(N)=O)cc1 [Compound 69, 2-(6-Methyl-2-p-tolyl-imidazo[1,2-a]pyridin-3-ylmethyl)-2H-[1,2,4]triazole-3-carboxylic acid amide]
% Inhibition at 1000 nM for CBZD: ++ (percentage of inhibition of central BZD site binding is greater than 80% in the presence of 1000 nM of the compound)

COC(=O)c1ncnn1Cc1c(-c2ccc(Cl)cc2)nc2ccccn12 [Compound 24, 2-[2-(4-Chloro-phenyl)-imidazo[1,2-a]pyridin-3-ylmethyl]-2H-[1,2,4]triazole-3-carboxylic acid methyl ester]
% Inhibition at 1000 nM for CBZD: ++ (percentage of inhibition of central BZD site binding is greater than 80% in the presence of 1000 nM of the compound)

CCOC(=O)c1nccn1Cc1c(-c2ccc(Cl)cc2)nc2ccc(Cl)cn12 [Compound 22, 1-[6-Chloro-2-(4-chloro-phenyl)-imidazo[1,2-a]pyridin-3-ylmethyl]-1H-imidazole-2-carboxylic acid ethyl ester]
% Inhibition at 1000 nM for CBZD: ++ (percentage of inhibition of central BZD site binding is greater than 80% in the presence of 1000 nM of the compound)

CNC(=O)c1nc2ccccc2n1Cc1c(-c2ccc(Cl)cc2)nc2ccccn12 [Compound 36, 1-((2-(4-chlorophenyl)imidazo[1,2-a]pyridin-3-yl)methyl)-N-methyl-1H-benzo[d]imidazole-2-carboxamide]
% Inhibition at 1000 nM for CBZD: + (percentage of inhibition of central BZD site binding is greater than 50% but less than 80% in the presence of 1000 nM of the compound)

Cc1ccc2nc(-c3ccc(Cl)cc3)c(Cc3nnc(C)o3)n2c1 [Compound 203, 2-((2-(4-chlorophenyl)-6-methylimidazo[1,2-a]pyridin-3-yl)methyl)-5-methyl-1,3,4-oxadiazole]
% Inhibition at 1000 nM for CBZD: ++ (percentage of inhibition of central BZD site binding is greater than 80% in the presence of 1000 nM of the compound)

CON(C)C(=O)c1ncnn1Cc1c(-c2ccc(Cl)cc2)nc2ccc(Cl)cn12 [Compound 82, 2-[6-Chloro-2-(4-chloro-phenyl)-imidazo[1,2-a]pyridin-3-ylmethyl]-2H-[1,2,4]triazole-3-carboxylic acid methoxy-methyl-amide]
% Inhibition at 1000 nM for CBZD: ++ (percentage of inhibition of central BZD site binding is greater than 80% in the presence of 1000 nM of the compound)

Cc1ccc(-c2nc3ccc(C)cn3c2CSc2nncn2C)cc1 [Compound 176, 3-((4-methyl-4H-1,2,4-triazol-3-ylthio)methyl)-6-methyl-2-p-tolylH-imidazo[1,2-a]pyridine]
% Inhibition at 1000 nM for CBZD: ++ (percentage of inhibition of central BZD site binding is greater than 80% in the presence of 1000 nM of the compound)

Cc1ccc(-c2nc3c(Cl)cc(Cl)cn3c2CNc2ncc[nH]2)cc1 [Compound 171, (6,8-Dichloro-2-p-tolyl-imidazo[1,2-a]pyridin-3-ylmethyl)-(1H-imidazol-2-yl)-amine]
% Inhibition at 1000 nM for CBZD: ++ (percentage of inhibition of central BZD site binding is greater than 80% in the presence of 1000 nM of the compound)

Clc1ccc(-c2nc3ccccn3c2Cn2cncn2)cc1 [Compound 67, 3-((1H-1,2,4-triazol-1-yl)methyl)-2-(4-chlorophenyl)imidazo[1,2-a]pyridine]
% Inhibition at 1000 nM for CBZD: ++ (percentage of inhibition of central BZD site binding is greater than 80% in the presence of 1000 nM of the compound)

NC(=O)c1nccn1Cc1c(-c2ccc(Cl)cc2)nc2cccnn12 [Compound 87, 1-((2-(4-chlorophenyl)imidazo[1,2-b]pyridazin-3-yl)methyl)-1H-imidazole-2-carboxamide]
% Inhibition at 1000 nM for CBZD: + (percentage of inhibition of central BZD site binding is greater than 50% but less than 80% in the presence of 1000 nM of the compound)

O=c1[nH]c(Cc2c(-c3ccc(F)cc3)nc3ccc(F)cn23)no1 [Compound 236, 3-((6-fluoro-2-(4-fluorophenyl)imidazo[1,2-a]pyridin-3-yl)methyl)-1,2,4-oxadiazol-5(4H)-one]
% Inhibition at 1000 nM for CBZD: ++ (percentage of inhibition of central BZD site binding is greater than 80% in the presence of 1000 nM of the compound)

CCC1=C(C)CN(Cc2c(-c3ccc(C)cc3)nc3ccc(C)cn23)C1=O [Compound 93, 3-ethyl-4-methyl-1-((6-methyl-2-p-tolyl-H-imidazo[1,2-a]pyridin-3-yl)methyl)-1H-pyrrol-2(5H)-one]
% Inhibition at 1000 nM for CBZD: ++ (percentage of inhibition of central BZD site binding is greater than 80% in the presence of 1000 nM of the compound)

COC1=CC(=O)N(Cc2c(-c3ccc(C)cc3)nc3ccc(C)cn23)C1 [Compound 94, 4-methoxy-1-((6-methyl-2-p-tolyl-H-imidazo[1,2-a]pyridin-3-yl)methyl)-1H-pyrrol-2(5H)-one]
% Inhibition at 1000 nM for CBZD: ++ (percentage of inhibition of central BZD site binding is greater than 80% in the presence of 1000 nM of the compound)

Cc1ccc(-c2nc3ccc(C)cn3c2CNc2nccc(C)n2)cc1 [Compound 143, 4-methyl-N-((6-methyl-2-p-tolylH-imidazo[1,2-a]pyridin-3-yl)methyl)pyrimidin-2-amine]
% Inhibition at 1000 nM for CBZD: ++ (percentage of inhibition of central BZD site binding is greater than 80% in the presence of 1000 nM of the compound)

CCOC(=O)c1cc2ccccc2n1Cc1c(-c2ccc(Cl)cc2)nc2ccccn12 [Compound 37, Ethyl 1-((2-(4-chlorophenyl)imidazo[1,2-a]pyridin-3-yl)methyl)-1H-indole-2-carboxylate]
% Inhibition at 1000 nM for CBZD: − (percentage of inhibition of central BZD site binding is less than 50% in the presence of 1000 nM of the compound)

Cc1ccc(-c2nc3ccc(C)cn3c2Cn2[nH]c(C)cc2=O)cc1 [Compound 91, 1,2-dihydro-3-methyl-1-((6-methyl-2-p-tolyl-H-imidazo[1,2-a]pyridin-3-yl)methyl)pyrazol-5-one]
% Inhibition at 1000 nM for CBZD: ++ (percentage of inhibition of central BZD site binding is greater than 80% in the presence of 1000 nM of the compound)

Cc1ccc(-c2nc3ccc(C)cn3c2CN2C(=O)CN(C)C2=O)cc1 [Compound 102, 1-methyl-3-((6-methyl-2-p-tolylH-imidazo[1,2-a]pyridin-3-yl)methyl)imidazolidine-2,4-dione]
% Inhibition at 1000 nM for CBZD: + (percentage of inhibition of central BZD site binding is greater than 50% but less than 80% in the presence of 1000 nM of the compound)

c1ccc(-c2nc3ccccn3c2Cn2nccn2)cc1 [Compound 51, 3-((2H-1,2,3-triazol-2-yl)methyl)-2-phenylH-imidazo[1,2-a]pyridine]
% Inhibition at 1000 nM for CBZD: ++ (percentage of inhibition of central BZD site binding is greater than 80% in the presence of 1000 nM of the compound)

CN(C)C(=O)c1ncn(Cc2c(-c3ccc(Cl)cc3)nc3ccccn23)n1 [Compound 75, 1-((2-(4-chlorophenyl)imidazo[1,2-a]pyridin-3-yl)methyl)-N,N-dimethyl-1H-1,2,4-triazole-3-carboxamide]
% Inhibition at 1000 nM for CBZD: ++ (percentage of inhibition of central BZD site binding is greater than 80% in the presence of 1000 nM of the compound)

Cc1ccc(-c2nc3ccc(C)cn3c2CSc2nncs2)cc1 [Compound 180, 6-Methyl-3-([1,3,4]thiadiazol-2-ylsulfanylmethyl)-2-p-tolyl-imidazo[1,2-a]pyridine]
% Inhibition at 1000 nM for CBZD: ++ (percentage of inhibition of central BZD site binding is greater than 80% in the presence of 1000 nM of the compound)

COC(=O)c1ncnn1Cc1c(-c2ccc(C)cc2)nc2ccc(C)cn12 [Compound 10, 2-(6-Methyl-2-p-tolyl-imidazo[1,2-a]pyridin-3-ylmethyl)-2H-[1,2,4]triazole-3-carboxylic acid methyl ester]
% Inhibition at 1000 nM for CBZD: ++ (percentage of inhibition of central BZD site binding is greater than 80% in the presence of 1000 nM of the compound)

Cc1cccc(=O)n1Cc1c(-c2ccc(Cl)cc2)nc2ccc(Cl)cn12 [Compound 107, 1-((6-chloro-2-(4-chlorophenyl)H-imidazo[1,2-a]pyridin-3-yl)methyl)-6-methylpyridin-2(1H)-one]
% Inhibition at 1000 nM for CBZD: ++ (percentage of inhibition of central BZD site binding is greater than 80% in the presence of 1000 nM of the compound)

O=C1C=C(N2CCC(O)CC2)CN1Cc1c(-c2ccc(Cl)cc2)nc2ccccn12 [Compound 241, 1-((2-(4-chlorophenyl)imidazo[1,2-a]pyridin-3-yl)methyl)-4-(4-hydroxypiperidin-1-yl)-1H-pyrrol-2(5H)-one]
% Inhibition at 1000 nM for CBZD: ++ (percentage of inhibition of central BZD site binding is greater than 80% in the presence of 1000 nM of the compound)

Cc1ccc(-c2nc3ccc(C)cn3c2Cn2ncnc2C(=O)N(C)C)cc1 [Compound 70, 2-(6-Methyl-2-p-tolyl-imidazo[1,2-a]pyridin-3-ylmethyl)-2H-[1,2,4]triazole-3-carboxylic acid dimethylamide]
% Inhibition at 1000 nM for CBZD: + (percentage of inhibition of central BZD site binding is greater than 50% but less than 80% in the presence of 1000 nM of the compound)

CC(C)c1nnc(Cc2c(-c3ccccc3)nc3ccc(Cl)cn23)[nH]1 [Compound 232, 6-chloro-3-((5-isopropyl-4H-1,2,4-triazol-3-yl)methyl)-2-phenylimidazo[1,2-a]pyridine]
% Inhibition at 1000 nM for CBZD: ++ (percentage of inhibition of central BZD site binding is greater than 80% in the presence of 1000 nM of the compound)
